From patent US20020142347A1, “Biosensor” (BIOSENSOR ApS, priority 2000, published 2002)

How the values were obtained:
FACI-24 = target: T1, FACI-24 (Bos taurus, UniProt P07107, M25C); experiment: Fluorescence titration equilibrium binding analysis of CoA and acyl-CoA esters to FACI-24; parameters: species or system bovine; details: FACI-24 (1.5 μM) titrated with increasing CoA and acyl-CoA concentration; fitted binding curves, emission 460 nm; read-out: Kd (nM) ± S.E.
T1 construct: made in house; host or cells: E. coli BL21(DE3)pLysS, pET3a vector
T1 sequence (P07107 2-87 M25C): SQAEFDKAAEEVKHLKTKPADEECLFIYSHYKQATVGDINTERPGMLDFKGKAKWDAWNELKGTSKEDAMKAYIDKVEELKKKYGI
Procedure: Development of a mathematical expression describing the relationship between acyl-CoA concentration and FACI-24 fluorescence was performed essentially as by Richieri et al 1992, J Biol Chem, 267:23495-23501. However, where ligand binding to ADIFAB induces both a fluorescence intensity increase around 505 nm and a fluorescence intensity decrease around 432 nm, ligand binding to FACI-24 only causes an increase in fluorescence around 460 nm.
Derivatisation of an expression for the fluorescence value as a function of the acyl-coA concentration was done using the Scatchard equation as a starting point: [formula]
which has been used to fit the titration data.
The curves represent the best fit analysis from two independent experiment calculated and normalized as described above. The FACI-24 binding affinity increases dramatically when the acyl-chain length increases from C8 to C10 and C12, a smaller but significant drop in Kd is seen by increasing chain length from C12 to C14. C14 to C18 saturated acyl-CoA esters and C18:1-CoA binds with similar and very high affinities to FACI-24. In >0.1 M salt, FACI-24 binds acyl-CoAs with higher affinity and similar specificity as native unmodified bovine ACBP. The Kd for binding of C12-CoA and C16-CoA to native ACBP is 40 and 2.0 nM, respectively (Fulcery et al Biochemical, 1997, 325:423-428; Færgeman et al 1996, Biochemistry, 35:14118-14126). FACI-24 is highly specific for binding long-chain acyl-CoA esters.
Titration of FACI with acyl-CoAs was done using a SPEX FLOUROLOG (Industries Inc, Edison N.J., USA) with excitation at 387 nm and emission at 460 nm, with both excitation and emission slits set to 4.5 nm. FACI (0.5-4.5 uM, as indicated) was dissolved in 1.5 ml binding buffer (10 mM HEPES 150 mM NaCl, 5 mM KCl, 1 mM Na2HPO4, pH 7.4) and titrated with a 10 μM acyl-CoA dissolved in binding buffer, with or without FACI added, as indicated. Fluorescence emission values (counts per second) measured without FACI added to the ligand stock solution were corrected for titrand dilution.
Up to four parameters were fitted in this way, these were B, representing the point of saturation on the X axis, H, representing the maximum fluorescence, i.e. the fluorescence at saturating concentration of acyl-CoA, L, the minimum fluorescence value, i.e. the fluorescence of FACI-24 alone in buffer, and K, the Kd value lor the acyl-CoA in question. Initial estimates for the fittable parameters were typically: B=1, H=maximum fluorescence value measured, L=minimum fluorescence value measured (at acyl-CoA-concentration=0), and K as judged from the raw data, typically from 0.0001 uM to 0.1 uM for acyl-CoA longer than C10:0-CoA.
For each acyl-CoA at least two titrations and fittings were performed. To consider two or more titrations of the same acyl-CoA together and obtain a Kd value using all these titrations, both axes of the raw data were standardised using the fitted values of B, H and L in this way:
X axis standard=(raw X axis values)/Bfitted
Y axis standard=[(raw Y axis values)−Lfitted]/[Hfitted−Lfitted]
In this way all Y axis values should come to lie between 0 and 1 and the X axis value should be 1 at the point of saturation (FACI-24:acyl-CoA 1:1). Such adjusted data were pooled and fitted using DataFit. Typically, both H and B fitted to values close to 1 and L fitted to values close to 0. K was typically fitted to values somewhere between the two values obtained for the raw data.
This could be overcome by removing B from the fittable parameters list and instead setting it to a constant value of 1 and fitting again. This was typically done for both the raw and the standardised data.

native bovine ACBP = target: T2, native bovine ACBP (Bos taurus, UniProt P07107); details: isothermal titration microcalorimetry, >0.1 M salt; literature; read-out: KD for binding to native bovine ACBP; cited from earlier work
T2 sequence (P07107 1-87): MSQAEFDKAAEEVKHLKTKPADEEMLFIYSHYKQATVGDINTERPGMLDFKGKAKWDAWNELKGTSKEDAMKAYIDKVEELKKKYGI

Kd (FACI-24): 0.65 ± 0.26 nM
SMILES: CCCCCCCCCCCCCCCC(=O)SCCNC(=O)CCNC(=O)[C@H](O)C(C)(C)COP(=O)(O)OP(=O)(O)OC[C@H]1O[C@@H](n2cnc3c(N)ncnc32)[C@H](O)[C@@H]1OP(=O)(O)O [C16:0-CoA, palmitoyl-CoA]
Kd (native bovine ACBP): 2 nM
